For one data set, the system named is Staphylococcus aureus. The data set is described as follows: microbe, parasite or virus in culture. The conditions noted are these: ATCC 25923.
Data set [1] relates to Escherichia coli. The data set is described as follows: Antibacterial activity against wild type impermeable Escherichia coli LMG194. The data set is classed as functional.
Data set [2] deals with Escherichia coli. The data set is described as follows: Antibacterial activity against isogenic permeable mutant Escherichia coli LMG194. The data set is classed as functional.
Data set [3] has as its system Escherichia coli. The data set is described as follows: Inhibition of protein synthesis in Escherichia coli S30 extracts by coupled transcription-translation assay. Format: functional.
Data set [4] deals with Escherichia coli. The data set is described as follows: microbe, parasite or virus in culture. The conditions noted are these: ATCC 25922.
Description: Antibacterial activity against Escherichia coli ATCC 25922
Another data set relates to CCRF-CEM. The data set is described as follows: Cytotoxicity against CEM T cells after 72 hrs by proliferation assay. The data set is classed as cell-based. The note with it: human, ccrf-cem, 72 h.

Values after ≈ are worked out from the molar mass of the structure shown.

Description for Staphylococcus aureus: Antibacterial activity against Staphylococcus aureus ATCC 25923

Turning to `N[C@@H]1C[C@H](N)CN(c2nc(Nc3ccc(Br)cc3)nc(N3C[C@H](N)C[C@H](N)C3)n2)C1`, the MIC in the data set with Staphylococcus aureus was above 64 µg/mL; in the data set with Escherichia coli [1], above 64 µg/mL; against Escherichia coli [2] it was 4 µg/mL (≈ 8.38 µM); against Escherichia coli [4] it was above 64 µg/mL. Further, inhibition in the data set on Escherichia coli [3] (Escherichia coli) was half-maximal at 4 µM (IC50).

Turning to `N[C@@H]1C[C@H](N)CN(c2nc(Nc3ccc([N+](=O)[O-])cc3)nc(N3C[C@H](N)C[C@H](N)C3)n2)C1`, the MIC was found to be 32 µg/mL (≈ 72.2 µM) in the data set on Staphylococcus aureus, 32 µg/mL (≈ 72.2 µM) against Escherichia coli [1], 4 µg/mL (≈ 9.02 µM) with Escherichia coli [2] and 32 µg/mL (≈ 72.2 µM) in the data set with Escherichia coli [4]. Moreover, in the data set on Escherichia coli [3] (Escherichia coli), it took 4 µM to reach half-maximal inhibition (IC50).

As to `N[C@@H]1C[C@H](N)CN(c2nc(Nc3ccc4c(c3)CCC4)nc(N3C[C@H](N)C[C@H](N)C3)n2)C1`, the MIC in the data set with Staphylococcus aureus was 32 µg/mL (≈ 73 µM); against Escherichia coli [1], 64 µg/mL (≈ 146 µM); in the data set with Escherichia coli [2], 8 µg/mL (≈ 18.2 µM); against Escherichia coli [4], above 64 µg/mL. Inhibition with Escherichia coli [3] (Escherichia coli) was half-maximal at 15 µM (IC50).

As for `N[C@@H]1C[C@H](N)CN(c2nc(Nc3ccc(F)cc3)nc(N3C[C@H](N)C[C@H](N)C3)n2)C1`, the MIC in the data set on Staphylococcus aureus amounted to 16 µg/mL (≈ 38.4 µM); against Escherichia coli [1], 32 µg/mL (≈ 76.8 µM); in the data set on Escherichia coli [2], 4 µg/mL (≈ 9.6 µM); against Escherichia coli [4] it was 64 µg/mL (≈ 154 µM). Besides, the concentration for half-maximal inhibition (IC50) (as a rule, the midpoint of a concentration-inhibition curve) with Escherichia coli [3] (Escherichia coli) worked out at 3 µM.

Consider `N[C@@H]1C[C@H](N)CN(c2nc(Nc3cccc(C(F)(F)F)c3)nc(N3C[C@H](N)C[C@H](N)C3)n2)C1`, for which the MIC in the data set with Staphylococcus aureus was 16 µg/mL (≈ 34.3 µM); against Escherichia coli [1], 32 µg/mL (≈ 68.6 µM); against Escherichia coli [2], 4 µg/mL (≈ 8.57 µM); in the data set on Escherichia coli [4] it was 32 µg/mL (≈ 68.6 µM). The same compound yielded an IC50 with Escherichia coli [3] (Escherichia coli) of 5 µM.

Turning to GENTAMICIN, the CC50 (usually the concentration giving 50% cytotoxicity) in the data set on CCRF-CEM is above 300 µM. The compound further registered an IC50 with Escherichia coli [3] of 0.03 µM.

Values taken from ChEMBL document CHEMBL1137289, “Structure-activity relationships of novel antibacterial translation inhibitors: 3,5-diamino-piperidinyl triazines” (Bioorg Med Chem Lett, 2006).
